Results taken from patent publication US9924721B2 (priority 2013, dated 2018).
Marks after values point to notes of the source that are not given here.

Conditions: pH 2.7

Question: With `CCCCCC(CC)OC(=O)C(C(=O)N1CCC(c2nc(C3=NOC(c4ccccc4C=O)C3)cs2)CC1)n1nc(C(F)F)cc1C(F)F` (stereo not shown) [Example I-21] as the compound, how does the “Log P” value read?
Answer: Its value is 5.20^[a].

Question: Which “Log P” value does the source give for `C#CCOc1cccc(F)c1C1CC(c2csc(C3CCN(C(=O)C(C(=O)OC(CC)CCCCC)n4nc(C(F)F)cc4C(F)F)CC3)n2)=NO1` (stereo not shown) [Example I-18] here?
Answer: The value was 5.22^[a].

Question: For `CC(C)(C)OC(=O)C(Br)C(=O)N1CCC(c2nc(C3=NOC(c4c(Cl)cccc4OS(C)(=O)=O)C3)cs2)CC1` (stereo not shown) [Example I-72], which “Log P” value is on record?
Answer: The value was 3.50^[a].

Question: With `C#CCOc1ccccc1C1CC(c2csc(C3CCN(C(=O)CC(=O)OC(C)(C)C)CC3)n2)=NO1` (stereo not shown) [Example I-82] as the compound, how does the “Log P” value read?
Answer: Its value is 3.22^[a].

Question: For `CC(C)(C)OC(=O)C(Br)C(=O)N1CCC(c2nc(C3=NOC(c4ccccc4OS(C)(=O)=O)C3)cs2)CC1` (stereo not shown) [Example I-74], which “Log P” value is on record?
Answer: The value was 3.24^[a].

Question: Which “Log P” value does the source give for `CC(C)(C)OC(=O)CC(=O)N1CCC(c2nc(C3=NOC(c4ccccc4OS(C)(=O)=O)C3)cs2)CC1` (stereo not shown) [Example I-81] here?
Answer: Its value is 2.80^[a].

Question: With `C#CCOc1ccccc1C1CC(c2csc(C3CCN(C(=O)C(Br)C(=O)OC(C)(C)C)CC3)n2)=NO1` (stereo not shown) [Example I-73] as the compound, how does the “Log P” value read?
Answer: The value was 3.68^[a].

Question: Which “Log P” value does the source give for `CCCCCC(CC)OC(=O)CC(=O)N1CCC(c2nc(C3=NOC(c4c(F)cccc4OS(C)(=O)=O)C3)cs2)CC1` (stereo not shown) [Example I-48] here?
Answer: The value was 4.03^[a].

Question: For `CS(=O)(=O)Oc1ccccc1C1CC(c2csc(C3CCN(C(=O)C(Br)C(=O)OCc4ccccc4)CC3)n2)=NO1` (stereo not shown) [Example I-68], which “Log P” value is on record?
Answer: Its value is 3.31^[a].

Question: Which “Log P” value does the source give for `C#CCOc1ccccc1C1CC(c2csc(C3CCN(C(=O)CC(=O)OC(CC)CCCCC)CC3)n2)=NO1` (stereo not shown) [Example I-57] here?
Answer: Its value is 4.56^[a].

Question: With `C#CCOc1ccccc1C1CC(c2csc(C3CCN(C(=O)C(Br)C(=O)OCc4ccccc4)CC3)n2)=NO1` (stereo not shown) [Example I-70] as the compound, how does the “Log P” value read?
Answer: The value was 3.72^[a].

Question: With `C#CCOc1cccc(F)c1C1CC(c2csc(C3CCN(C(=O)C(Br)C(=O)OC(CC)CCCCC)CC3)n2)=NO1` (stereo not shown) [Example I-35] as the compound, how does the “Log P” value read?
Answer: The value was 4.89^[a].

Question: Which “Log P” value does the source give for `CS(=O)(=O)Oc1cccc(Cl)c1C1CC(c2csc(C3CCN(C(=O)CC(=O)OCc4ccccc4)CC3)n2)=NO1` (stereo not shown) [Example I-76] here?
Answer: The value was 3.12^[a].

Question: With `CCOC(=O)CC(=O)N1CCC(c2nc(C3=NOC(c4c(F)cccc4OS(C)(=O)=O)C3)cs2)CC1` (stereo not shown) [Example I-54] as the compound, how does the “Log P” value read?
Answer: The value was 2.29^[a].

Question: With `CCCCCC(CC)OC(=O)C(C(=O)N1CCC(c2nc(C3=NOC(c4c(F)cccc4OS(C)(=O)=O)C3)cs2)CC1)n1nc(C(F)F)cc1C(F)F` (stereo not shown) [Example I-22] as the compound, how does the “Log P” value read?
Answer: The value was 4.04^[a].

Question: With `C#CCOc1ccccc1C1CC(c2csc(C3CCN(C(=O)C(Br)C(=O)OC(C)C)CC3)n2)=NO1` (stereo not shown) [Example I-32] as the compound, how does the “Log P” value read?
Answer: Its value is 3.43^[a].

Question: Which “Log P” value does the source give for `C#CCOc1cccc(F)c1C1CC(c2csc(C3CCN(C(=O)CC(=O)OCCOC)CC3)n2)=NO1` (stereo not shown) [Example I-43] here?
Answer: The value was 2.43^[a].

Question: Which “Log P” value does the source give for `CS(=O)(=O)Oc1cccc(Cl)c1C1CC(c2csc(C3CCN(C(=O)C(Br)C(=O)OCc4ccccc4)CC3)n2)=NO1` (stereo not shown) [Example I-67] here?
Answer: Its value is 3.54^[a].

Question: Which “Log P” value does the source give for `CC(C)OC(=O)C(Br)C(=O)N1CCC(c2nc(C3=NOC(c4ccccc4OS(C)(=O)=O)C3)cs2)CC1` (stereo not shown) [Example I-37] here?
Answer: Its value is 2.99^[a].

Question: Which “Log P” value does the source give for `CCOC(=O)C(C(=O)N1CCC(c2nc(C3=NOC(c4ccccc4C=O)C3)cs2)CC1)n1nc(C(F)F)cc1C(F)F` (stereo not shown) [Example I-14] here?
Answer: The value was 3.40^[a].

Question: With `C#CCOc1ccccc1C1CC(c2csc(C3CCN(C(=O)CC(=O)OCc4ccccc4)CC3)n2)=NO1` (stereo not shown) [Example I-77] as the compound, how does the “Log P” value read?
Answer: Its value is 3.30^[a].

Question: With `C#CCOc1cccc(Cl)c1C1CC(c2csc(C3CCN(C(=O)C(Br)C(=O)OCC)CC3)n2)=NO1` (stereo not shown) [Example I-31] as the compound, how does the “Log P” value read?
Answer: The value was 3.20^[a].

Question: With `CC(C)OC(=O)C(Br)C(=O)N1CCC(c2nc(C3=NOC(c4ccccc4C=O)C3)cs2)CC1` (stereo not shown) [Example I-29] as the compound, how does the “Log P” value read?
Answer: Its value is 3.11^[a].

Question: Which “Log P” value does the source give for `CS(=O)(=O)Oc1ccccc1C1CC(c2csc(C3CCN(C(=O)CC(=O)OCc4ccccc4)CC3)n2)=NO1` (stereo not shown) [Example I-75] here?
Answer: Its value is 2.89^[a].

Question: For `CCCCCC(CC)OC(=O)C(Br)C(=O)N1CCC(c2nc(C3=NOC(c4ccccc4OS(C)(=O)=O)C3)cs2)CC1` (stereo not shown) [Example I-39], which “Log P” value is on record?
Answer: Its value is 4.55^[a].
